Experimental data as given in PubChem BioAssay AID1259407 (Chemical Carcinogenesis Research Information System (CCRIS), 2018).
The source made the active and inactive calls. No rule for the calls is given here.

Test system: CCRIS mutagenicity, Ames/micronucleus/aberration tests
Assay: CCRIS mutagenicity studies
[1] = Test System: AMES SALMONELLA TYPHIMURIUM, Strain/Indicator: TA97, Metabolic Activation: NONE, Method: PREINCUBATION
[2] = Test System: AMES SALMONELLA TYPHIMURIUM, Strain/Indicator: TA98, Metabolic Activation: NONE, Method: PREINCUBATION
[3] = Test System: AMES SALMONELLA TYPHIMURIUM, Strain/Indicator: TA100, Metabolic Activation: NONE, Method: PREINCUBATION
[4] = Test System: AMES SALMONELLA TYPHIMURIUM, Strain/Indicator: TA102, Metabolic Activation: NONE, Method: PREINCUBATION

How did the mutagenic call (Test System: AMES SALMONELLA TYPHIMURIUM, Strain/Indicator: TA97, Metabolic Activation: HAMSTER, LIVER, S-9, AROCLOR 1254 (10%), Method: PREINCUBATION) turn out when `CCCCCCCCCCCCCCCCCC[N+](C)(C)Cc1ccccc1` was run?
Its mutagenic call is “inactive; negative”.

What about the mutagenic call (Test System: AMES SALMONELLA TYPHIMURIUM, Strain/Indicator: TA97, Metabolic Activation: HAMSTER, LIVER, S-9, AROCLOR 1254 (30%), Method: PREINCUBATION) of the same compound?
The mutagenic call was “inactive; negative”.

And the mutagenic call [1]?
Its mutagenic call is “inactive; negative”.

And the mutagenic call (Test System: AMES SALMONELLA TYPHIMURIUM, Strain/Indicator: TA97, Metabolic Activation: RAT, LIVER, S-9, AROCLOR 1254 (10%), Method: PREINCUBATION)?
The mutagenic call was “inactive; negative”.

And the mutagenic call (Test System: AMES SALMONELLA TYPHIMURIUM, Strain/Indicator: TA97, Metabolic Activation: RAT, LIVER, S-9, AROCLOR 1254 (30%), Method: PREINCUBATION)?
The mutagenic call was “inactive; negative”.

And the mutagenic call (Test System: AMES SALMONELLA TYPHIMURIUM, Strain/Indicator: TA98, Metabolic Activation: HAMSTER, LIVER, S-9, AROCLOR 1254 (10%), Method: PREINCUBATION)?
Its mutagenic call is “inactive; negative”.

And the mutagenic call (Test System: AMES SALMONELLA TYPHIMURIUM, Strain/Indicator: TA98, Metabolic Activation: HAMSTER, LIVER, S-9, AROCLOR 1254 (30%), Method: PREINCUBATION)?
The mutagenic call was “inactive; negative”.

And the mutagenic call [2]?
The mutagenic call was “inactive; negative”.

What about the mutagenic call (Test System: AMES SALMONELLA TYPHIMURIUM, Strain/Indicator: TA98, Metabolic Activation: RAT, LIVER, S-9, AROCLOR 1254 (10%), Method: PREINCUBATION) of the same compound?
Its mutagenic call is “inactive; negative”.

What about the mutagenic call (Test System: AMES SALMONELLA TYPHIMURIUM, Strain/Indicator: TA98, Metabolic Activation: RAT, LIVER, S-9, AROCLOR 1254 (30%), Method: PREINCUBATION) of the same compound?
The mutagenic call was “inactive; negative”.

And the mutagenic call (Test System: AMES SALMONELLA TYPHIMURIUM, Strain/Indicator: TA100, Metabolic Activation: HAMSTER, LIVER, S-9, AROCLOR 1254 (10%), Method: PREINCUBATION)?
Its mutagenic call is “inactive; negative”.

What about the mutagenic call (Test System: AMES SALMONELLA TYPHIMURIUM, Strain/Indicator: TA100, Metabolic Activation: HAMSTER, LIVER, S-9, AROCLOR 1254 (30%), Method: PREINCUBATION) of the same compound?
The mutagenic call was “inactive; negative”.

And the mutagenic call [3]?
Its mutagenic call is “inactive; negative”.

And the mutagenic call (Test System: AMES SALMONELLA TYPHIMURIUM, Strain/Indicator: TA100, Metabolic Activation: RAT, LIVER, S-9, AROCLOR 1254 (10%), Method: PREINCUBATION)?
Its mutagenic call is “inactive; negative”.

And the mutagenic call (Test System: AMES SALMONELLA TYPHIMURIUM, Strain/Indicator: TA100, Metabolic Activation: RAT, LIVER, S-9, AROCLOR 1254 (30%), Method: PREINCUBATION)?
Its mutagenic call is “inactive; negative”.

What about the mutagenic call (Test System: AMES SALMONELLA TYPHIMURIUM, Strain/Indicator: TA1535, Metabolic Activation: HAMSTER, LIVER, S-9, AROCLOR 1254 (10%), Method: PREINCUBATION) of the same compound?
Its mutagenic call is “inactive; negative”.

And the mutagenic call (Test System: AMES SALMONELLA TYPHIMURIUM, Strain/Indicator: TA1535, Metabolic Activation: HAMSTER, LIVER, S-9, AROCLOR 1254 (30%), Method: PREINCUBATION)?
Its mutagenic call is “inactive; negative”.

What about the mutagenic call (Test System: AMES SALMONELLA TYPHIMURIUM, Strain/Indicator: TA1535, Metabolic Activation: NONE, Method: PREINCUBATION) of the same compound?
Its mutagenic call is “inactive; negative”.

What about the mutagenic call (Test System: AMES SALMONELLA TYPHIMURIUM, Strain/Indicator: TA1535, Metabolic Activation: RAT, LIVER, S-9, AROCLOR 1254 (10%), Method: PREINCUBATION) of the same compound?
The mutagenic call was “inactive; negative”.

What about the mutagenic call (Test System: AMES SALMONELLA TYPHIMURIUM, Strain/Indicator: TA1535, Metabolic Activation: RAT, LIVER, S-9, AROCLOR 1254 (30%), Method: PREINCUBATION) of the same compound?
The mutagenic call was “inactive; negative”.

And the mutagenic call (Test System: AMES SALMONELLA TYPHIMURIUM, Strain/Indicator: TA1537, Metabolic Activation: HAMSTER, LIVER, S-9, AROCLOR 1254 (30%), Method: PREINCUBATION)?
The mutagenic call was “inactive; negative”.

What about the mutagenic call (Test System: AMES SALMONELLA TYPHIMURIUM, Strain/Indicator: TA1537, Metabolic Activation: NONE, Method: PREINCUBATION) of the same compound?
The mutagenic call was “inactive; negative”.

And the mutagenic call (Test System: AMES SALMONELLA TYPHIMURIUM, Strain/Indicator: TA1537, Metabolic Activation: RAT, LIVER, S-9, AROCLOR 1254 (30%), Method: PREINCUBATION)?
The mutagenic call was “inactive; negative”.

With `Cc1cc2nc3c(ccc4ccccc43)c(C)c2cc1C` as the compound, how does the mutagenic call (Test System: AMES SALMONELLA TYPHIMURIUM, Strain/Indicator: TA97A, Metabolic Activation: NONE, Method: PREINCUBATION) read?
The mutagenic call was “active; positive”.

And the mutagenic call [2]?
Its mutagenic call is “inactive; negative”.

And the mutagenic call [3]?
The mutagenic call was “inactive; negative”.

And the mutagenic call [4]?
Its mutagenic call is “active; positive”.

How did the mutagenic call (Test System: AMES SALMONELLA TYPHIMURIUM, Strain/Indicator: TA1535, Metabolic Activation: RAT, LIVER, S-9, KC500 OR PHENOBARBITAL, Method: LIQUID SUSPENSION) turn out when `CCCN(CCCC(=O)O)N=O` was run?
Its mutagenic call is “active; positive”.

Which results are given for `OCc1c2ccccc2cc2ccccc12`?
mutagenic call (End Point: In vitro chromosomal aberrations, Test System: Chinese hamster lung (CHL/IU) cells, Metabolic Activation: Rat, Liver, S9, Phenobarbital and 5,6-benzoflavone): active; positive (structural changes) (weak response). precipitation in the culture medi; mutagenic call (Test System: AMES SALMONELLA TYPHIMURIUM, Strain/Indicator: TA98, Metabolic Activation: HUMAN, LIVER, CYTOSOL, PAPS, Method: PREINCUBATION): active; positive; mutagenic call (Test System: Ames Salmonella typhimurium, Strain/Indicator: TA98, Metabolic Activation: None, Method: Preincubation): inactive; negative; mutagenic call (Test System: Ames Salmonella typhimurium, Strain/Indicator: TA98, Metabolic Activation: Rat, Liver, S9, Sodium phenobarbital and 5,6-benzoflavone (10%), Method: Preincubation): inactive; negative; mutagenic call (Test System: Ames Salmonella typhimurium, Strain/Indicator: TA98, Metabolic Activation: Rat, Liver, S9, Sodium phenobarbital and 5,6-benzoflavone (30%), Method: Preincubation): inactive; negative; mutagenic call (Test System: Ames Salmonella typhimurium, Strain/Indicator: TA100, Metabolic Activation: None, Method: Preincubation): inactive; negative; mutagenic call (Test System: Ames Salmonella typhimurium, Strain/Indicator: TA100, Metabolic Activation: Rat, Liver, S9, Sodium phenobarbital and 5,6-benzoflavone (10%), Method: Preincubation): inactive; negative; mutagenic call (Test System: Ames Salmonella typhimurium, Strain/Indicator: TA100, Metabolic Activation: Rat, Liver, S9, Sodium phenobarbital and 5,6-benzoflavone (30%), Method: Preincubation): active; positive; mutagenic call (Test System: Ames Salmonella typhimurium, Strain/Indicator: TA1535, Metabolic Activation: None, Method: Preincubation): inactive; negative; mutagenic call (Test System: Ames Salmonella typhimurium, Strain/Indicator: TA1535, Metabolic Activation: Rat, Liver, S9, Sodium phenobarbital and 5,6-benzoflavone (10%), Method: Preincubation): inactive; negative; mutagenic call (Test System: Ames Salmonella typhimurium, Strain/Indicator: TA1535, Metabolic Activation: Rat, Liver, S9, Sodium phenobarbital and 5,6-benzoflavone (30%), Method: Preincubation): inactive; negative; mutagenic call (Test System: Ames Salmonella typhimurium, Strain/Indicator: TA1537, Metabolic Activation: None, Method: Preincubation): inactive; negative; mutagenic call (Test System: Ames Salmonella typhimurium, Strain/Indicator: TA1537, Metabolic Activation: Rat, Liver, S9, Sodium phenobarbital and 5,6-benzoflavone (10%), Method: Preincubation): active; positive (weak); mutagenic call (Test System: Ames Salmonella typhimurium, Strain/Indicator: TA1537, Metabolic Activation: Rat, Liver, S9, Sodium phenobarbital and 5,6-benzoflavone (30%), Method: Preincubation): inactive; negative; mutagenic call (Test System: E. coli, Strain/Indicator: WP2uvrA/pKM101, Metabolic Activation: Rat, Liver, S9, Sodium phenobarbital and 5,6-benzoflavone (30%), Method: Preincubation): inactive; negative

For `CCCCOC(=O)CCC`, which mutagenic call [1] is on record?
Its mutagenic call is “inactive; negative”.

What about the mutagenic call (Test System: AMES SALMONELLA TYPHIMURIUM, Strain/Indicator: TA97, Metabolic Activation: RAT, LIVER, S-9, AROCLOR 1254, Method: PREINCUBATION) of the same compound?
The mutagenic call was “inactive; negative”.

What about the mutagenic call [4] of the same compound?
Its mutagenic call is “inactive; negative”.

And the mutagenic call (Test System: AMES SALMONELLA TYPHIMURIUM, Strain/Indicator: TA102, Metabolic Activation: RAT, LIVER, S-9, AROCLOR 1254, Method: PREINCUBATION)?
The mutagenic call was “inactive; negative”.

`C[C@H](Br)C(=O)NCc1ccccc1` was tested. Which mutagenic call (Test System: AMES SALMONELLA TYPHIMURIUM, Strain/Indicator: TA100, Metabolic Activation: NONE, Method: STANDARD PLATE) did it give?
The mutagenic call was “active; positive”.

How did the mutagenic call [2] turn out when `O=[N+]([O-])c1ccc2c3c1ccc1cccc(c13)[C@@H](O)[C@@H]2O` was run?
The mutagenic call was “active; positive”.

What about the mutagenic call (Test System: AMES SALMONELLA TYPHIMURIUM, Strain/Indicator: TA98, Metabolic Activation: RAT, LIVER, S-9, AROCLOR 1254, Method: PREINCUBATION) of the same compound?
The mutagenic call was “active; positive”.

What about the mutagenic call [3] of the same compound?
The mutagenic call was “active; positive”.

And the mutagenic call (Test System: AMES SALMONELLA TYPHIMURIUM, Strain/Indicator: TA100, Metabolic Activation: RAT, LIVER, S-9, AROCLOR 1254, Method: PREINCUBATION)?
Its mutagenic call is “active; positive”.
